This is an account of results in patent US20140242606A1, “PROBE FOR iFRET AND USE THEREOF” (KOREA RESEARCH INSTITUTE OF BIOSCIENCE AND BIOTECHNOLOGY, priority 2011, published 2014).

Series [1] deals with T1, active caspase (Homo sapiens, UniProt P42574).
T1 sequence (P42574 29-175 limits assumed): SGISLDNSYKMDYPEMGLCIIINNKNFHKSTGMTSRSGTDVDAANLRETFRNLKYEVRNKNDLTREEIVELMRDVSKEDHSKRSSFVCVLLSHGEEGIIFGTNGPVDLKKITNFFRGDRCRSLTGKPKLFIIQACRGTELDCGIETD
T1 sequence (P42574 176-277 limits assumed): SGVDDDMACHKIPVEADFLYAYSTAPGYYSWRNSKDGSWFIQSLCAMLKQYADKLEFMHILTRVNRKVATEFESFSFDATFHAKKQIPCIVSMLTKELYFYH
The experiment in a line: iFRET detection of caspase-3 with probe XXIII. The format is binding. To be noted: mixture of probe and active caspase, excitation at 280 nm, versus caspase or probe alone. An excerpt:
<Detection of Caspase-3 Protein and Test of its Activity Using iFRET Probe of Chemical Formula XXIII>
Chemical Formula XXIII and caspase protein were used to detect iFRET signals.

The test system of series [2] is inactive caspase. The experiment in a line: iFRET control with inactive caspase. The format is binding. The conditions noted are these: inactive caspase and probe excited at 280 nm.
Series [3] in a line: Fluorescence of the iFRET probe alone. The format is physicochemical. To be noted: for fluorescence emission wavelength of probe alone: excitation / UV irradiation at 280 nm. An excerpt: After excitation at 260, 280, 340, and 360 nm, the emitted fluorescence spectra were examined. […]
(§1) As in FIG. 23 showing the result of using the compound of Chemical Formula XXV as a probe for iFRET, the probe itself emitted low fluorescence (blue line) at 430 nm by UV irradiation at 280 nm; the protein (streptavidin) emitted fluorescence (green line) at 340 nm by UV irradiation at 280 nm.
As in FIG. 24 showing the result of using the compound of Chemical Formula XXVI as a fluorescent probe, the probe itself emitted low fluorescence (blue line) at 460 nm by UV irradiation at 280 nm; the protein (streptavidin) emitted fluorescence (green line) at 340 nm by UV irradiation at 280. […] Further, it was confirmed that the fluorescence increasing rate at the above emission wavelength was 600% or more, indicating production of effective iFRET signals. […]

Series [4] has as its target HSP90 protein. Kind of series: Dissociation constant of iFRET probe and HSP90 (double reciprocal plot of fluorescence). The format is binding. To be noted: probe concentration fixed, HSP90 at various concentrations. How it is done: FIG. 21 is the result of binding degree of the synthesized Chemical Formula XXIV and HSP90 protein. The core structure used in the synthesis of Chemical Formula XXIV is PU-H64 (J. Med. Chem. 2006, 49, 4953-4960), and this structure binds to HSP90. The iFRET probe used in this experiment is a structure in which a fluorescent nucleus is introduced into PU-H64. In order to examine the actual binding degree of this probe and HSP90 protein, analysis of enzyme kinetics was performed to confirm that its dissociation constant is approximately 160 nM. The concentration of Chemical Formula XXIV as the iFRET probe was fixed and HSP90 was reacted at various concentrations to measure emitted fluorescence intensity. Based on this measured values, the dissociation constant was calculated. The reciprocal of the HSP90 concentration and the reciprocal of the fluorescence value were plotted to calculate the dissociation constant.

The subject of series [5] is HSP90 (heat shock protein 90) protein. Kind of series: iFRET detection of HSP90 with probe XXIV. It counts as binding. How it is done:
Compound XXIV was dissolved in DMSO, and then diluted with distilled water to a final concentration of 2 μM. When Compound XXIV or the protein was present alone, no fluorescence signals were newly observed around 450 nm.
(§2) The right graph of FIG. 18 is the result of reexamining iFRET signals using Compound XXIV, purified HSP90 protein, and a control group BSA (bovine serum albumin). 2 μM Compound XXIV was used, and HSP90 protein and BSA protein were used at the final concentration of 200 nM. At this time, the used buffer was phosphate buffered saline (PBS; pH 7.4). As shown in the figure, iFRET signals result from compound XXIV and HSP90 protein which are selectively binding.
FIG. 19 is a graph showing iFRET signals detected by using HSP90 protein and Chemical Formula XXIV Selectively binding thereto.
(§3) As a control group, BSA (bovine serum albumin) was used.

Series [6] deals with BSA (bovine serum albumin) (Bos taurus, UniProt P02769). Kind of series: iFRET control of probe XXIV with BSA. To be noted: probe (2 μM) with BSA (200 nM), PBS pH 7.4. It counts as binding. How it is done: as §2, §3
Chain of BSA (bovine serum albumin) (P02769 25-607): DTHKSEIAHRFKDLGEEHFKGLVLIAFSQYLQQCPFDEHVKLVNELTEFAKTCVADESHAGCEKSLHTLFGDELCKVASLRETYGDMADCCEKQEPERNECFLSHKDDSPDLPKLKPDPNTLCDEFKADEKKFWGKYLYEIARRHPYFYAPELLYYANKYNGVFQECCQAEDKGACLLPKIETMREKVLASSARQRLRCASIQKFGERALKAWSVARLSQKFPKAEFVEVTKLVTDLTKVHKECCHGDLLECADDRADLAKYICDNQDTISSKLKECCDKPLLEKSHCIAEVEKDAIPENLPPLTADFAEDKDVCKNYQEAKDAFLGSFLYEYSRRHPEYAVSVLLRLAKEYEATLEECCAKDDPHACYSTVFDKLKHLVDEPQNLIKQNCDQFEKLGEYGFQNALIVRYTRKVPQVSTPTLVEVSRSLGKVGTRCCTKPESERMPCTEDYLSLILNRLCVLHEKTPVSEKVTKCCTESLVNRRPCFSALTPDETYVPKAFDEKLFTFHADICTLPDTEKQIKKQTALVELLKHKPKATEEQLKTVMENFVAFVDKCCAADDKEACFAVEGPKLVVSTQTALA
Series [7] addresses T2, streptavidin (Streptomyces avidinii, UniProt P22629). Kind of series: iFRET detection of streptavidin with biotin-conjugated probes. It counts as binding. To be noted: UV irradiation at 280 nm.
Excerpt: The results of detecting streptavidin using Compounds of Chemical Formulae XXV to XXVIII as probes for iFRET are shown in FIGS. 23 to 26.
as §1
As in FIG. 24 showing the result of using the compound of Chemical Formula XXVI as a fluorescent probe, the probe itself emitted low fluorescence (blue line) at 460 nm by UV irradiation at 280 nm; the protein (streptavidin) emitted fluorescence (green line) at 340 nm by UV irradiation at 280. […] Further, it was confirmed that the fluorescence increasing rate at the above emission wavelength was 600% or more, indicating production of effective iFRET signals.
Because the compound of Chemical Formula XXVII emitted fluorescence at the longer wavelength than the known iFRET probe, signal-to-noise ratio is […] during real-time cell imaging, thereby providing more clear images.
(§4) In order to examine target specificity of the probe having Chemical Formula XXVIII, the probe was exposed to BSA to examine whether iFRET signals were produced by binding of the probe to BSA. […] Therefore, it was confirmed that the biotin-conjugated iFRET fluorescent probe of the present invention selectively binds to streptavidin to produce iFRET signals.

Series [8] is described as follows: Quantum yield measurement. It counts as physicochemical. To be noted: 0.1 M pH 10.0 phosphate buffer, standard 4-methyl-umbelliferone. The method, then:
(§5) The quantum yield of each compound was measured in 0.1 M pH 10.0 phosphate buffer. 4-methyl-umbelliferone (ΦF 0.63) was used as a standard material, tryptophan (ΦF=0.12) was used as an FRET donor to calculate the quantum yield. FRET efficiency was calculated based on the results measured in PBS buffer at pH 7.4, and fluorescence was measured using an LS55 fluorescence spectrometer manufactured by Perkin Elmer.

The target in series [9] is T2, streptavidin. Kind of series: FRET efficiency and Forster distance of biotin-conjugated probes. It counts as binding. The conditions noted are these: between iFRET probe and streptavidin. How it is done: as §5
The target of series [10] is BSA (Bos taurus, UniProt P02769). Kind of series: Target specificity of probe XXVIII against BSA. The format is binding. To be noted: probe exposed to BSA.
Chain of BSA (P02769 25-607): as above
Excerpt: as §4

T2 sequence (P22629 25-183): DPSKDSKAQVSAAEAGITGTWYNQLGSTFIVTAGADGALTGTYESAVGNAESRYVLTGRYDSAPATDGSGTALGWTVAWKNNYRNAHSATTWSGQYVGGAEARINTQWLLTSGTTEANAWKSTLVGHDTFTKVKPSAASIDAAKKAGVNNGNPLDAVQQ

In the case of `CC(C)[C@H](NC(=O)[C@H](CCC(=O)O)NC(=O)[C@H](CC(=O)O)NC(=O)CCC(=O)NCCNc1cccc2ccccc12)C(=O)N[C@H](C=O)CC(=O)O` [Chemical Formula XXIII], the “increase of fluorescence at 445 nm” value in series [1] is recorded as “approximately 300%”. Besides, the iFRET signals entry in [2] is reported as “no iFRET signals were observed”. Also, in [3], the “fluorescence emission wavelength of probe alone” value is given as “approximately 445 nm”.

What is called Kd is the free concentration of one partner at which half of the binding sites on the other are occupied at equilibrium, for simple one-to-one binding. With `Nc1ncnc2c1nc(Sc1cc3c(cc1Br)OCO3)n2CCC(=O)NCCNc1cccc2ccccc12` [Chemical Formula XXIV, 3-(6-amino-8-(6-bromobenzo[1,3]-dioxole-5-ylthio)-9S-purin-9-yl)-N-(2-(naphthalene-1-ylamino)ethyl)propaneamide], in [4], the Kd was around 160 nM. Moreover, the “iFRET signal around 450 nm” value in series [5] (2 μM probe with purified HSP90, DMSO diluted with distilled water) is on record as “new fluorescence signals were observed”. The “fluorescence at 430 nm of mixture” value in [5] (mixture of probe and HSP90, excitation at 280 nm, versus HSP90 or probe alone) is “increased fluorescence”. Also, the iFRET signals entry in series [6] was “no iFRET signals”. In [3], the “fluorescence emission wavelength of probe alone” value is on record as “approximately 430 nm”. Besides, the “fluorescence intensity on excitation at 340 nm compared to excitation at 280 nm” value in series [3] (probe alone) was “approximately 2 fold”.

On to `CN(C)c1ccc2cc(/C=C/C(=O)NCCNC(=O)CCCC[C@@H]3SC[C@@H]4NC(=O)N[C@@H]43)c(=O)oc2c1` [Chemical Formula XXVIII, N-((E)-7-dimethylaminocoumarin-3-acryl)-N′-(biotinyl)ethylenediamide], for which the “fluorescence / iFRET signal of mixture of probe and streptavidin” value in series [7] is on record as “iFRET signals produced”. In addition, in [8], the “Quantum yield (ΦF)” value is 0.55. For the same compound, in series [9], the “R0 (Fōrster distance)” value is 2.102 nm. In series [10], the iFRET signals entry is on record as “no signals were observed”.
